In ChEMBL document CHEMBL4229327, “Chemical Approaches to Modulating Complement-Mediated Diseases” (J Med Chem, 2018):
One block for each compound: values may come before it. Peptide text beside a SMILES is read from it.

Key:
Complement factor D = Complement factor D (Homo sapiens, UniProt P00746)
Description: Inhibition of factor D in human serum assessed as decrease in C3 deposition on PNH erythrocytes

[1] = Half life in Wistar rat at 10 mg/kg, po or 1 mg/kg, iv; assay type: ADME, organism-based; conditions: in vivo
[2] = Oral bioavailability in Wistar rat at 10 mg/kg; assay type: ADME, organism-based; conditions: in vivo
[3] = target: T1, C3a anaphylatoxin chemotactic receptor (Homo sapiens, UniProt Q16581); assay: Antagonist activity at human C3aR expressed in RBL-2H3 cells assessed as inhibition of C3a-induced intracellular calcium mobilization; assay type: functional, cell-based
T1 sequence (Q16581 whole entry): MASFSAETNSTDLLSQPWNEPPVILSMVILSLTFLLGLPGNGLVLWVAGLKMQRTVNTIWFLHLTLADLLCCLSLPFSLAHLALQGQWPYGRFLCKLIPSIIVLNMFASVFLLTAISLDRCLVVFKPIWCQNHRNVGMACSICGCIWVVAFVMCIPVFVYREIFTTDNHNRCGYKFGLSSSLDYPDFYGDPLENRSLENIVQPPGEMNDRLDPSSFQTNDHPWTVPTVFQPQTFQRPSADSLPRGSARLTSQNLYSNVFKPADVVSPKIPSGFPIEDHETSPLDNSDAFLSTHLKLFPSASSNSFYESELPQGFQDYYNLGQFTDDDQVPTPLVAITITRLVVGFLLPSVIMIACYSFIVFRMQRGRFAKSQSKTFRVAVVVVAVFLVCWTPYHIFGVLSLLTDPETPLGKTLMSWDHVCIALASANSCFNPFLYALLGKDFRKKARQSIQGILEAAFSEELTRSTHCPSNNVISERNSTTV

[4] = target: T1, C3a anaphylatoxin chemotactic receptor; assay: Displacement of 125I-C3a from human C3aR expressed in RBL-2H3 cells; assay type: cell-based
[5] = target: T2, Mannan-binding lectin serine protease 2 (Homo sapiens, UniProt O00187); assay: Inhibition of MASP2 (unknown origin)-induced lectin pathway by ELISA
[6] = target: T2, Mannan-binding lectin serine protease 2; assay: Inhibition of recombinant […] fragment of MASP-2 (unknown origin)
[7] = target: T3, C5a anaphylatoxin chemotactic receptor 1 (Homo sapiens, UniProt P21730); assay: Antagonist activity at recombinant human C5aR1 expressed in Sf9 insect cell membranes co-expressing G-alphai2,G-beta1 and G-gamma2 assessed as inhibition of recombinant human C5a-induced [35S]GTPgammaS binding after 60 mins by liquid scintillation spectrometry; assay type: functional
T3 sequence (P21730 whole entry): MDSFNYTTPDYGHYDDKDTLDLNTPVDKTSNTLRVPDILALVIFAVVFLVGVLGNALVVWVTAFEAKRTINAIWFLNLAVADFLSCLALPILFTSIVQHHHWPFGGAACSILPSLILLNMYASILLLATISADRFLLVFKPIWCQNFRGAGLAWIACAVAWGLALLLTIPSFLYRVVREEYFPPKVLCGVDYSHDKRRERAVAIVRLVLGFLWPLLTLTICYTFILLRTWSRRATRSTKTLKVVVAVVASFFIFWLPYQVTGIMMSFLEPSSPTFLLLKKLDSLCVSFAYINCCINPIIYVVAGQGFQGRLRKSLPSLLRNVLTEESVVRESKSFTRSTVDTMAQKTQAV

Complement C2 [8] = target: T4, Complement C2 (Homo sapiens, UniProt P06681); assay: Inhibition of human C2-mediated C3 processing after 24 hrs by SDS-PAGE
T4 sequence (P06681 whole entry): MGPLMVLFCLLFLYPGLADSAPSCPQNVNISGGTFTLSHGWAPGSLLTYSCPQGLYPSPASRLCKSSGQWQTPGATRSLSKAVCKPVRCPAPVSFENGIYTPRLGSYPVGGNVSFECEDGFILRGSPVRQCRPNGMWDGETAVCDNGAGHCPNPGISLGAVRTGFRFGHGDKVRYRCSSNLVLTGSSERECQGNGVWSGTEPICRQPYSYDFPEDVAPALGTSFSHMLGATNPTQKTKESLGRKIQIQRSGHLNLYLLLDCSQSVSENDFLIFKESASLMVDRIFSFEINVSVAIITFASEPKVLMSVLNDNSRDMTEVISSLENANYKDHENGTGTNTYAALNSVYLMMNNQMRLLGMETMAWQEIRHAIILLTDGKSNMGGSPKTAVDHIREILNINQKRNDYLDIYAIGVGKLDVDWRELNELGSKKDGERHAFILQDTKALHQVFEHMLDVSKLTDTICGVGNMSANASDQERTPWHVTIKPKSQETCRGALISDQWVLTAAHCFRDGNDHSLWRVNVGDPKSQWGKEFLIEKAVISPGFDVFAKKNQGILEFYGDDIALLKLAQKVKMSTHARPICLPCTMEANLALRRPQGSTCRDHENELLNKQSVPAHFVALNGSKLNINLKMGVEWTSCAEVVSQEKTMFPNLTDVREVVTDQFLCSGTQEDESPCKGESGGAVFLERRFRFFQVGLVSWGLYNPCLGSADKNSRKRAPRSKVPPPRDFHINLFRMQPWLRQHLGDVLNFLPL

Complement C2 [9] = target: T4, Complement C2; assay: Competitive/reversible inhibition of human C2 using Ac-SHLGLAR-pNA as substrate
Complement C2 [10] = target: T4, Complement C2; assay: Inhibition of C2-mediated MAC formation in human serum by ELISA
Complement factor B = Complement factor B (Homo sapiens, UniProt P00751); assay: Displacement of Cy5 from recombinant human biotin-labeled factor B expressed in drosophila cells after 2 hrs by TR-FRET assay; assay type: cell-based
[11] = Inhibition of factor D in […]-activated cat serum assessed as decrease in human erythrocyte lysis; conditions: Felis catus
[12] = Inhibition of factor D in […]-activated dog serum assessed as decrease in human erythrocyte lysis; conditions: Canis lupus familiaris

T2 sequence (O00187 16-444 limits assumed): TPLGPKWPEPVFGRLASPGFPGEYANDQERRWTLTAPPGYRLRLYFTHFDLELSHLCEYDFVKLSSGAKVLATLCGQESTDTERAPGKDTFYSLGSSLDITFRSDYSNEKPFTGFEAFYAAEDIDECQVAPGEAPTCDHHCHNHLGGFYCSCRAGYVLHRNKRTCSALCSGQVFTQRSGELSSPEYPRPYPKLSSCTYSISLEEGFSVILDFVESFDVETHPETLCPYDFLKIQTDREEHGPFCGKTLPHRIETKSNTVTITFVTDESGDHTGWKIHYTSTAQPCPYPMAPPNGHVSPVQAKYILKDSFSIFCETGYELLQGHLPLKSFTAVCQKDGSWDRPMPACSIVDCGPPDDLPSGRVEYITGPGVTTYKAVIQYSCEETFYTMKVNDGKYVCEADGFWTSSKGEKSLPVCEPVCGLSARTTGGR
T2 sequence (O00187 445-686 limits assumed): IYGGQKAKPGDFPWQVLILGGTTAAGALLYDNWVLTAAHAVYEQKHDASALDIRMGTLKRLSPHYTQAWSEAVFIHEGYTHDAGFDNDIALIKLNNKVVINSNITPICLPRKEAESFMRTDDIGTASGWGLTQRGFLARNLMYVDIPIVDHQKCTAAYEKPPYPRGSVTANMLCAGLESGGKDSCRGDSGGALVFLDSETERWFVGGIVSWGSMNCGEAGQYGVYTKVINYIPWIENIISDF
Complement factor D, sequence (P00746 whole entry): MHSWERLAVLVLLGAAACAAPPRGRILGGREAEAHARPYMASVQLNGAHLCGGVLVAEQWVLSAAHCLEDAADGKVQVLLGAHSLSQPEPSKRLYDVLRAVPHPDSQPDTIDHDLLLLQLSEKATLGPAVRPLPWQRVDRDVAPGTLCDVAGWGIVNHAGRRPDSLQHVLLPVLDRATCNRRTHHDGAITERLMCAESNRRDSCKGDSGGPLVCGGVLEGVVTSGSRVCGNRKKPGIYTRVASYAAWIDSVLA
Complement factor B, sequence (P00751 whole entry): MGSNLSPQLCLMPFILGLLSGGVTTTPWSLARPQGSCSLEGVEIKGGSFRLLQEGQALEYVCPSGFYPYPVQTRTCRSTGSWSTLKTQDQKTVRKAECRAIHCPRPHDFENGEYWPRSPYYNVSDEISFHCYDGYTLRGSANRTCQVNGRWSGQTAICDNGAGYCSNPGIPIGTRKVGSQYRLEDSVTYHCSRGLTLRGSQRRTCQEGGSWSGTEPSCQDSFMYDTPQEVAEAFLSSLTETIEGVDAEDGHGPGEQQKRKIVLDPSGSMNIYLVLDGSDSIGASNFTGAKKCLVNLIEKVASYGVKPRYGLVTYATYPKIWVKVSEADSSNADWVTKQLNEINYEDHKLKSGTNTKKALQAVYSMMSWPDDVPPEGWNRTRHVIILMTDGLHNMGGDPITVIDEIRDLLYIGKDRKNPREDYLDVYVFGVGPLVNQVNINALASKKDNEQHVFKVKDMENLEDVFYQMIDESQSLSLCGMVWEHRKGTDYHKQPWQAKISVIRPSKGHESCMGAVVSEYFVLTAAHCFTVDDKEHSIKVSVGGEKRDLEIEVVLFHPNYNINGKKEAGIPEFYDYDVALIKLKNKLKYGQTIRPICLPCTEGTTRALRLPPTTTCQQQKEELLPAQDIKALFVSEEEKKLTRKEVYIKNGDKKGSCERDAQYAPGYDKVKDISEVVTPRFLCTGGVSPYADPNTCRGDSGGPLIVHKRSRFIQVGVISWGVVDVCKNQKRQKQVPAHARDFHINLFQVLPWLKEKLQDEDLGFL

IC90 (Complement factor D): 89 nM
Compound: CC(=O)c1nn(CC(=O)N2C[C@H](F)C[C@H]2C(=O)Nc2cccc(Br)n2)c2ccc(-c3cnc(C)nc3)cc12

half-life [1]: 20 h
bioavailability [2]: ≤ 2%
Compound: CC(=O)N[C@@H](Cc1ccccc1)C(=O)N[C@H]1CCCNC(=O)[C@H](CCCNC(=N)N)NC(=O)[C@H](Cc2c[nH]c3ccccc23)NC(=O)[C@@H](CC2CCCCC2)NC(=O)[C@@H]2CCCN2C1=O

Compound: N=C(N)NCCC[C@H](NC(=O)COCC(c1ccccc1)c1ccccc1)C(=O)O
IC50 [3]: 28 nM
IC50 [4]: 200 nM

IC50 [5]: 66 nM
Ki [6]: 6 nM
Compound: CC(C)C[C@H](NC(=O)[C@H](CCCCN)NC(=O)[C@@H](NC(=O)[C@H](CS)NC(=O)[C@@H](NC(=O)[C@H](C)NC(=O)[C@H](CO)NC(=O)[C@H](CCCCN)NC(=O)CNC(=O)[C@H](CC(=O)O)NC(=O)[C@H](CO)NC(=O)CNC(=O)[C@H](CS)NC(=O)[C@H](CCCNC(=N)N)NC(=O)[C@H](CS)NC(=O)[C@@H](NC(=O)[C@H](CC(N)=O)NC(=O)[C@H](CS)NC(=O)[C@H](CCCCN)NC(=O)[C@H](CC(=O)O)NC(=O)[C@H](CCCCN)NC(=O)[C@H](Cc1ccccc1)NC(=O)[C@@H](NC(=O)[C@@H](NC(=O)CNC(=O)[C@@H]1CCCN1C(=O)[C@H](CCC(=O)O)NC(=O)[C@H](CS)NC(=O)[C@@H](NC(=O)[C@@H](NC(=O)[C@@H](N)CCC(=O)O)C(C)C)[C@@H](C)O)[C@@H](C)O)[C@@H](C)O)[C@@H](C)O)C(C)C)[C@@H](C)O)C(=O)N[C@@H](Cc1c[nH]c2ccccc12)C(=O)N[C@@H](CS)C(=O)N[C@@H](CC(N)=O)C(=O)N[C@@H](CCC(N)=O)C(=O)O (H-EVTCEPGTTFKDKCNTCRCGSDGKSAVCTKLWCNQ-OH)

Compound: C[C@@H](C(=O)N(Cc1ccccc1F)C1Cc2ccccc2C1)N1CCc2ccccc2[C@@H]1c1cccc2ccccc12
Ki [7]: 15.2 nM

IC50 (Complement C2 [8]): 500 to 1000 nM
IC50 (Complement C2 [9]): 330 nM
IC50 (Complement C2 [10]): 7300 nM
Compound: CC(=O)N[C@@H](CCCNC(=N)N)C(=O)N[C@@H](CC(C)C)C(=O)N[C@@H](CC(C)C)C(=O)N[C@@H](CC(C)C)C(=O)N[C@@H](C)C(=O)N[C@H](C=O)CCCNC(=N)N (Ac-RLLLAR-aldehyde)

IC50 (Complement factor B): 30 nM
Compound: COc1cc(C)c2[nH]ccc2c1C(C)(C)c1nc2cc(C#N)cnc2[nH]1

IC50 [11]: 100 nM
IC50 [12]: 100 nM
Compound: CC(=O)Oc1ccc(-c2ccc(OC(C)=O)c(C(=O)O)c2)cc1C(=O)O

IC50 [11]: 100 nM
IC50 [12]: 100 nM
Compound: CC(=O)Oc1ccc(Cc2ccc(OC(C)=O)c(C(=O)O)c2)cc1C(=O)O

half-life [1]: 1 to 3 h
Compound: CCc1cccc(CC)c1-c1cc(OC(C)C)c2c(n1)CCCC2Nc1ccccc1CCO (configuration not stated)
